The source of these data is patent US20260001875A1, “AMINOPYRIMIDINYL DERIVATIVES FOR THE TREATMENT OF PARKINSON'S DISEASE” (UNIVERSITY OF DUNDEE, priority 2022, published 2026).

Assay [1] concerns Rab10 pThr73. Put plainly: Rab10 Thr73 dephosphorylation (immunoblot) in LRRK2^G2019S MEFs. In kind it is cell-based, mouse. To be noted: Mus musculus, read-out: pRab10 inhibited in LRRK2^G2019S MEFs. In general terms: A western blot detects proteins with antibodies after separation by electrophoresis.
Assay [2] deals with Rab10 pThr73. Described as above. In kind it is cell-based. The conditions noted are these: Mus musculus, read-out: pRab10 inhibited in LRRK2^G2019S MEFs. The protocol:
(§1) The second-generation PROTACs were tested in parallel with the first generation PROTACs SD75, SD82, and SD100. The compounds were tested at 33 nM or […] concentrations for 4 hours or 24 hours, running two biological replicates per condition and achieving quantifications representative of both replicates. Analysis by quantitative immunoblotting was performed with readouts of the total LRRK2 (antibody recognizes epitope in C-terminus of protein), Rab10 pThr73 (physiological substrate) and LRRK2 pSer935 (biomarker phosphorylation site).
(§2) Primary MEFs were generated as described in a previous study (Wiggin et al., Mol. Cell Biol. 2002 April; 22(8):2871-81.). Briefly, the uterine horn was collected from adult female mice at day E12.5 and transferred to a 10 cm tissue culture dish containing cold PBS. Two forceps were used to tear the yolk sacs to isolate each embryo. Forceps were cleaned thoroughly with 70% ethanol between each embryo isolation. The embryos were culled, and a tissue piece was collected in a PCR tube for genotyping. The red tissue of the embryo, which grows to become the heart and liver, was removed. The remainder of the embryo was minced with a scalpel blade and incubated with 7.5 ml trypsin-EDTA solution for 10 minutes in a 37° C. tissue culture CO2 incubator. The dish was removed from the incubator and checked under a light microscope for single cells. 7.5 ml complete media was added to the trypsinised cells, and the cell suspension was transferred to a 15 ml Falcon tube, centrifuged at 1200 rpm for 5 minutes at room temperature. The trypsin was aspirated, the cell pellet was resuspended in 5 ml fresh complete media, and the cell suspension was plated in a 60 mm tissue culture dish and incubated in a 37° C., 5% CO2 tissue culture incubator. The MEFs at this stage were considered as passage 0 and were passaged and expanded for experimental use once the genotype was confirmed by allelic sequencing and immunoblotting. MEFs were cultured in Dulbecco's modified Eagle medium (DMEM) containing 10% (v/v) fetal bovine serum (FBS), 2 mM L-glutamine, 100 U/ml penicillin, and 100 μg/ml streptomycin supplemented with 1× non-essential amino acids and 1 mM sodium pyruvate.
Culturing and passaging of adherent cell lines were carried out using aseptic technique in CL1 or CL2 (for PBMC isolation) biological safety cabinets. All cells were incubated in a 37° C. incubator with 5% CO2. Cell lines were regularly tested for mycoplasma contamination. For western blot assay, the cells were seeded in 6-well plates. […] The cells were immediately placed on ice and were scraped and collected into 1.5 ml Eppendorf tubes. Cell lysates were incubated on ice for 10 minutes prior to centrifugation at 15,000 g at 4° C. for 15 minutes. The cell pellet was discarded, and supernatant was collected for analysis by quantitative immunoblotting. For long term storage, the supernatant was flash frozen and stored at −80° C. Protein concentrations of cell lysates were determined using the Bradford assay.
Cell lysates containing a quarter of a volume of 4× NuPAGE LDS sample buffer (NP0007) supplemented with 5% β-mercaptoethanol, were heated at 95° C. for 5 minutes. 15 to 20 μg of samples were loaded onto pre-cast 4-12% Bis-Tris midi 20W or 26W gels (Thermofisher Scientific®, Cat #WG1402BOX or WG1403BOX) and resolved at 130 V for 2 hours with NuPAGE MOPS SDS running buffer (Thermofisher Scientific® Cat #NP0001-02). Proteins were electrophoretically transferred onto a 0.45 μm nitrocellulose membrane (GE Healthcare, Amersham Protran® Supported 0.45 mm NC) at 90 V for 90 min on ice in transfer buffer (48 mM Tris base and 39 mM glycine supplemented with 20% methanol). The transferred membrane was blocked with 5% (w/v) skim milk powder dissolved in tris-buffered saline with tween (TBS-T) (50 mM Tris base, 150 mM sodium chloride (NaCl), 0.1% (v/v) Tween-20) at room temperature for 1 hour.

Assay [3] relates to Rab10 pThr73. Description: Rab10 Thr73 dephosphorylation (immunoblot) in WT MEFs. The conditions noted are these: Mus musculus, read-out: pRab10 inhibited in WT MEFs. In kind it is cell-based, mouse. The protocol:
as §1, with “Western blot degradation assays for the LRRK2 protacs were performed with WT and PD-associated LRRK2 [G2019S] mouse embryonic fibroblasts (MEFs). The second-generation” for “The second-generation”
as §2
Culturing and passaging of adherent cell lines were carried out using aseptic technique in CL1 or CL2 (for PBMC isolation) biological safety cabinets. All cells were incubated in a 37° C. incubator with 5% CO2. Cell lines were regularly tested for mycoplasma contamination. For western blot assay, the cells were seeded in 6-well plates. After treating with testing compounds at indicated concentrations and time period, the media was removed and the cells were washed with PBS and lysed in 100 μl ice-cold complete lysis buffer containing 50 mM Tris-HCl pH 7.4, 1 mM EGTA, 10 mM 2-glycerophosphate, 50 mM sodium fluoride, 5 mM sodium pyrophosphate, 270 mM sucrose, supplemented with 1 μg/ml microcystin-LR, 1 mM sodium orthovanadate, complete EDTA-free protease inhibitor cocktail (Roche) and 1% (v/v) Triton X-100. The cells were immediately placed on ice and were scraped and collected into 1.5 ml Eppendorf tubes. Cell lysates were incubated on ice for 10 minutes prior to centrifugation at 15,000 g at 4° C. for 15 minutes. The cell pellet was discarded, and supernatant was collected for analysis by quantitative immunoblotting. For long term storage, the supernatant was flash frozen and stored at −80° C. Protein concentrations of cell lysates were determined using the Bradford assay.
Cell lysates containing a quarter of a volume of 4× NuPAGE LDS sample buffer (NP0007) supplemented with 5% β-mercaptoethanol, were heated at 95° C. for 5 minutes. […]

With `CNc1nc(Nc2ccc(C(=O)N3CCN(Cc4ccc(CSC(C)(C)[C@H](NC(=O)C5(F)CC5)C(=O)N5C[C@H](O)C[C@H]5C(=O)NCc5ccc(-c6scnc6C)cc5)cc4)CC3)cc2OC)ncc1C(F)(F)F` [XL01070B, (2S,4R)-1-((R)-2-(1-fluorocyclopropane-1-carboxamido)-3-((4-((4-(3-methoxy-4-((4-(methylamino)-5-(trifluoromethyl)pyrimidin-2-yl)amino)benzoyl)piperazin-1-yl)methyl)benzyl)thio)-3-methylbutanoyl)-4-hydroxy-N-(4-(4-methylthiazol-5-yl)benzyl)pyrrolidine-2-carboxamide], the inhibition at 1 µM with Rab10 pThr73 [1] (1 μM/4 h treatment) was in the range of 20 to 100%; in the assay on Rab10 pThr73 [1] (1 μM/24 h treatment), 10 to 100%; in the assay with Rab10 pThr73 [3] (1 μM/4 h treatment), 10 to 95%; in the assay on Rab10 pThr73 [3] (1 μM/24 h treatment), 30 to 100%. Also, the inhibition at 0.033 µM in the assay with Rab10 pThr73 [2] (33 nM/4 h treatment) fell in the range of 0 to 70%; in the assay on Rab10 pThr73 [2] (33 nM/24 h treatment) it was 0 to 90%; with Rab10 pThr73 [3] (33 nM/4 h treatment), 0 to 40%; with Rab10 pThr73 [3] (33 nM/24 h treatment) it was 0 to 60%.
On to `CNc1nc(Nc2ccc(C(=O)N3CCN(CCCSC(C)(C)[C@H](NC(=O)C4(F)CC4)C(=O)N4C[C@H](O)C[C@H]4C(=O)NCc4ccc(-c5scnc5C)cc4)CC3)cc2OC)ncc1C(F)(F)F` [XL01072, (2S,4R)-1-((R)-2-(1-fluorocyclopropane-1-carboxamido)-3-((3-(4-(3-methoxy-4-((4-(methylamino)-5-(trifluoromethyl)pyrimidin-2-yl)amino)benzoyl)piperazin-1-yl)propyl)thio)-3-methylbutanoyl)-4-hydroxy-N-(4-(4-methylthiazol-5-yl)benzyl)pyrrolidine-2-carboxamide], for which the inhibition at 1 µM with Rab10 pThr73 [1] (1 μM/4 h treatment) was 20 to 100%; in the assay with Rab10 pThr73 [1] (1 μM/24 h treatment), 10 to 100%; in the assay on Rab10 pThr73 [3] (1 μM/4 h treatment) it was 10 to 95%; in the assay on Rab10 pThr73 [3] (1 μM/24 h treatment) it was 30 to 100%. In addition, the inhibition at 0.033 µM in the assay on Rab10 pThr73 [2] (33 nM/4 h treatment) is 0 to 70%; in the assay on Rab10 pThr73 [2] (33 nM/24 h treatment) it was 0 to 90%; in the assay on Rab10 pThr73 [3] (33 nM/4 h treatment), 0 to 40%; in the assay with Rab10 pThr73 [3] (33 nM/24 h treatment), 0 to 60%.
Take `CNc1nc(Nc2ccc(C(=O)N3CCN(CCOCCOCCOCCOCCOc4cccc(C(=O)c5csc(C6CCCN6C(=O)[C@@H](NC(=O)[C@H](C)NC)C6CCCCC6)n5)c4)CC3)cc2OC)ncc1Cl` (stereo partly drawn) [SD112, (S)—N—((S)-2-((S)-2-(4-(3-((14-(4-(4-((5-chloro-4-(methylamino)pyrimidin-2-yl)amino)-3-methoxybenzoyl)piperazin-1-yl)-3,6,9,12-tetraoxatetradecyl)oxy)benzoyl)thiazol-2-yl)pyrrolidin-1-yl)-1-cyclohexyl-2-oxoethyl)-2-(methylamino)propenamide]: the inhibition at 1 µM with Rab10 pThr73 [1] (1 μM/4 h treatment) lay within 30 to 95%; in the assay on Rab10 pThr73 [1] (1 μM/24 h treatment), 30 to 100%; in the assay on Rab10 pThr73 [3] (1 μM/4 h treatment), 18 to 90%; in the assay with Rab10 pThr73 [3] (1 μM/24 h treatment) it was 30 to 90%. Also, the inhibition at 0.033 µM with Rab10 pThr73 [2] (33 nM/4 h treatment) is 0 to 60%; in the assay on Rab10 pThr73 [2] (33 nM/24 h treatment), 0 to 70%; in the assay on Rab10 pThr73 [3] (33 nM/4 h treatment), 0 to 25%; in the assay with Rab10 pThr73 [3] (33 nM/24 h treatment), 10 to 40%.
As for `CNc1nc(Nc2ccc(C(=O)N3CCN(Cc4cccc(CSC(C)(C)[C@H](NC(=O)C5(F)CC5)C(=O)N5C[C@H](O)C[C@H]5C(=O)NCc5ccc(-c6scnc6C)cc5)c4)CC3)cc2OC)ncc1Cl` [XL01111, (2S,4R)-1-((R)-3-((3-((4-(4-((5-chloro-4-(methylamino)pyrimidin-2-yl)amino)-3-methoxybenzoyl)piperazin-1-yl)methyl)benzyl)thio)-2-(1-fluorocyclopropane-1-carboxamido)-3-methylbutanoyl)-4-hydroxy-N-(4-(4-methylthiazol-5-yl)benzyl)pyrrolidine-2-carboxamide], the inhibition at 1 µM was 20 to 100% in the assay on Rab10 pThr73 [1] (1 μM/4 h treatment), 10 to 100% in the assay on Rab10 pThr73 [1] (1 μM/24 h treatment), 10 to 95% in the assay on Rab10 pThr73 [3] (1 μM/4 h treatment) and 30 to 100% in the assay with Rab10 pThr73 [3] (1 μM/24 h treatment). Moreover, the inhibition at 0.033 µM in the assay with Rab10 pThr73 [2] (33 nM/4 h treatment) was 0 to 70%; in the assay with Rab10 pThr73 [2] (33 nM/24 h treatment), 0 to 90%; with Rab10 pThr73 [3] (33 nM/4 h treatment), 0 to 40%; in the assay with Rab10 pThr73 [3] (33 nM/24 h treatment) it was 0 to 60%.
In the case of `CNc1nc(Nc2ccc(C(=O)N3CCN(CC#CCSC(C)(C)[C@H](NC(=O)C4(F)CC4)C(=O)N4C[C@H](O)C[C@H]4C(=O)NCc4ccc(-c5scnc5C)cc4)CC3)cc2OC)ncc1Cl` [XL01076, (2S,4R)-1-((R)-3-((4-(4-(4-((5-chloro-4-(methylamino)pyrimidin-2-yl)amino)-3 methoxybenzoyl)piperazin-1-yl)but-2-yn-1-yl)thio)-2-(1-fluorocyclopropane-1-carboxamido)-3-methylbutanoyl)-4-hydroxy-N-(4-(4-methylthiazol-5-yl)benzyl)pyrrolidine-2-carboxamide], the inhibition at 1 µM was 20 to 100% in the assay with Rab10 pThr73 [1] (1 μM/4 h treatment), 10 to 100% with Rab10 pThr73 [1] (1 μM/24 h treatment), 10 to 95% with Rab10 pThr73 [3] (1 μM/4 h treatment) and 30 to 100% in the assay with Rab10 pThr73 [3] (1 μM/24 h treatment). Also, the inhibition at 0.033 µM in the assay on Rab10 pThr73 [2] (33 nM/4 h treatment) was 0 to 70%; in the assay on Rab10 pThr73 [2] (33 nM/24 h treatment), 0 to 90%; in the assay on Rab10 pThr73 [3] (33 nM/4 h treatment) it was 0 to 40%; in the assay on Rab10 pThr73 [3] (33 nM/24 h treatment) it was 0 to 60%.
